From the supplement of paper PMC10307832

Columns and labels:
Experiment in all cases: relative viability (nuclei count vs DMSO), 5 days (fraction); higher = more cells survive
[1] = compound: CN1CCN(CC1)C2=CC(=C(C=C2)NC3=NC=C4C(=N3)N(C5=CC=CC=C5C(=O)N4C)C)OC [XMD8-85] + C[C@@H](Oc1cc(-c2cnn(C3CCNCC3)c2)cnc1N)c1c(Cl)ccc(F)c1Cl [Crizotinib] (partner 1 µM)
In short: (§1)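 Relative viability equals treated-well nuclei counts divided by vehicle-well nuclei counts. Counts came from 4× images of lung cancer cell lines grown in 1536-well plates for 5 days after pin-tool dosing on the day after seeding. Dosing used one drug alone or a fixed anchor-drug dose plus five library-drug doses (not always all listed) in √10 steps, and values are medians of duplicate plates.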

[2] = compound: CN1CCN(CC1)C2=CC(=C(C=C2)NC3=NC=C4C(=N3)N(C5=CC=CC=C5C(=O)N4C)C)OC [XMD8-85] + Nc1ncn([C@H]2C[C@H](O)[C@@H](CO)O2)c(=O)n1 [Decitabine] (partner 2 µM)
In short: as §1

[3] = compound: O=C(O)C(Cc1ccccc1[N+](=O)[O-])=NNc1nc(-c2ccc(Cl)c(Cl)c2)cs1 (mixture of isomers) [4EGI-1] + Cc1cc(Nc2cc(N3CCN(C)CC3)nc(Sc3ccc(NC(=O)C4CC4)cc3)n2)n[nH]1 [Tozasertib] (partner 0.1 µM)
In short: as §1

[4] = compound: O=C(O)C(Cc1ccccc1[N+](=O)[O-])=NNc1nc(-c2ccc(Cl)c(Cl)c2)cs1 (mixture of isomers) [4EGI-1] + O=C(CCCCCCC(=O)Nc1ccccc1)NO [Vorinostat] (partner 1 µM)
In short: as §1

Row | Cell Line | relative viability ([1]; first compound 0.08 µM) | relative viability ([1]; first compound 0.253 µM) | relative viability ([1]; first compound 0.8 µM) | relative viability ([1]; first compound 2.53 µM) | relative viability ([1]; first compound 8 µM) | relative viability ([2]; first compound 0.08 µM) | relative viability ([2]; first compound 0.253 µM) | relative viability ([2]; first compound 0.8 µM) | relative viability ([2]; first compound 2.53 µM) | relative viability ([2]; first compound 8 µM) | relative viability ([3]; first compound 0.5 µM) | relative viability ([3]; first compound 5 µM) | relative viability ([3]; first compound 15.81 µM) | relative viability ([3]; first compound 50 µM) | relative viability ([4]; first compound 0.5 µM) | relative viability ([4]; first compound 1.581 µM) | relative viability ([4]; first compound 5 µM) | relative viability ([4]; first compound 15.81 µM) | relative viability ([4]; first compound 50 µM) | relative viability ([3]; first compound 1.581 µM)
1 | LC-2-ad | 0.442 | 0.446 | 0.462 | 0.444 | 0.303 | 0.734 | 0.774 | 0.811 | 0.772 | 0.514 | 0.415 | 0.483 | 0.347 | 0.232 | 0.736 | 0.62 | 0.617 | 0.356 | 0.207 | 
2 | LCLC-97TM1 | 0.321 | 0.569 | 0.558 | 0.456 | 0.333 | 0.222 | 0.206 | 0.204 | 0.284 | 0.195 | 0.231 | 0.215 | 0.219 | 0.102 | 0.78 |  | 0.856 | 0.843 | 0.0947 | 0.184
3 | SW 900 |  |  |  |  |  | 0.505 | 0.45 | 0.406 | 0.458 | 0.506 | 0.688 | 0.551 | 0.459 | 0.291 | 0.615 | 0.59 | 0.503 | 0.314 | 0.15 | 
4 | NCI-H460 | 0.996 | 0.83 | 1.19 | 0.619 | 0.0598 | 0.442 | 0.506 | 0.503 | 0.566 | 0.396 | 0.538 | 0.45 | 0.144 | 0.314 | 0.713 | 0.353 | 0.714 | 0.436 | 0.0364 | 
5 | UMC-11 | 0.656 | 0.497 | 0.638 | 0.459 | 0.237 | 0.568 | 0.618 | 0.594 | 0.545 | 0.544 | 0.192 | 0.203 | 0.201 | 0.21 | 0.448 | 0.408 | 0.449 | 0.446 | 0.296 | 0.198
6 | HCC-827 |  | 0.919 | 0.942 | 0.944 | 0.856 | 0.389 | 0.356 | 0.316 | 0.374 | 0.369 | 0.428 | 0.415 |  | 0.358 | 0.785 | 0.698 | 0.902 |  | 0.274 | 0.422
7 | 201T | 1.02 | 1.04 | 1.03 | 1.03 | 0.949 | 0.867 | 0.865 | 0.883 | 0.82 | 0.689 | 1.01 | 0.905 | 0.771 | 0.475 | 1.11 | 1.03 | 1.07 | 0.852 | 0.559 | 0.91
8 | NCI-H1755 | 0.901 | 0.978 | 0.892 | 0.939 | 0.748 | 0.754 | 0.677 | 0.714 | 0.764 | 0.724 | 0.625 | 0.525 | 0.486 | 0.355 | 0.818 | 0.749 | 0.891 | 0.853 | 0.626 | 0.569
